From publication PMC11078746 (Nature, 2024)
“And” between values parts separate entries of the source, which are not always exact repeats. Identical values can stand only once. Like-named read-outs stand apart in the source and are kept apart here.

How the values were obtained:
[1] = test system: WRN protein in MSI and MSS cells; assay: WRN degradation (immunoblot, ELISA); type: cell-based, human
Protocol: A list of all of the antibodies is provided in Supplementary Table 2. […] The plates were washed in PBS and 200 µl per well of blocking reagent added (PBS, 0.05% Tween-20, 5% skimmed milk), and the plates were incubated for a minimum of 2 h at room temperature. […] The plates were then washed and 50 µl of secondary antibody per well diluted in blocking buffer was added and the plates were incubated overnight at 4 °C. The next day, 50 µl of tertiary antibody was added per well buffer and the plates were incubated for 2 h at room temperature. […] The plates were shaken and luminescence was detected immediately on the Synergy HT microplate reader.

DLD-1 (HCT15) = assay: 4 day proliferation assay (CellTiter-Glo); settings: Homo sapiens, 96 h, read-out: 4 day assay GI50
RL952 = assay: CFA 10-14 day clonogenic assay; type: cell-based; settings: Homo sapiens, RL95-2
NUGC3 = assay: 4 day proliferation assay (CellTiter-Glo); settings: Homo sapiens, NUGC-3, 96 h, read-out: 4 day assay GI50
HCT116 = assay: 4 day proliferation assay (CellTiter-Glo)
MDCK LE permeability = type: in vitro ADME, canine; settings: dog
[2] = HRO761 blood PK in SW48 tumour-bearing mice; type: in vivo, mouse; settings: for concentration at 4 h / concentration at 8 h / concentration at 0.5 h / concentration at 1 h / concentration at 2 h / concentration at 24 h / AUC: female, whole blood; for concentration at 4 h / concentration at 8 h / concentration at 0.5 h / concentration at 1 h / concentration at 2 h / concentration at 24 h: Free HRO761 blood concentration
Protocol: All animal studies were conducted in accordance with ethics and procedures covered by permit BS-2275 and BS-1975 issued by the Kantonales Veterinäramt Basel-Stadt and in strict adherence to guidelines of the Eidgenössisches Tierschutzgesetz and the Eidgenössische Tierschutzverordnung, Switzerland. All animal studies were approved by the internal ethics committee. All animals had access to food and water ad libitum and were identified with transponders. They were housed in a specific-pathogen-free facility in IVC racks under a 12 h–12 h light–dark cycle. To establish cell-line-derived xenograft models, 6–7-week-old female athymic nude (Crl:NU(NCr)-Foxn1^nu) or SCID-BEIGE (CB17.Cg-PrkdcscidLystbg-J/Crl) mice from Charles River were engrafted subcutaneously with 5 million tumour cells in HBSS (H6648, Sigma-Aldrich). For SNU-407, Lovo, IM95, RL95.2, Ishikawa and IGROV-1, the cells were concentrated in 50% Matrigel (354234, Corning). Patient-derived xenografts were induced and expanded by transplantation as previously described. […] For the efficacy experiment, mice were randomized into groups (n = 5–6) for a mean tumour size of 100–150 mm^3. […] Blood samples were collected on day 7 and 91. […] Tumour responses are reported with the measures of tumour volumes from the treatment start. […] Animals were randomized (n = 3) and tumour samples were collected at 0, 1, 4, 8 and 24 h on the first day and then collected 4 h after the last treatment on day 3, 8, 10, 14 (including a 24 h timepoint), 17 and 21. Tumours were excised, weighed, either frozen in liquid nitrogen and cryogenic dry pulverized with the CryoPrep system (model CP-02, Covaris) or processed to FFPE after fixation. […] On day 12, blood samples were collected for PK analysis. On the last day (3 h after the last treatment), tumours were excised, weighed, frozen in liquid nitrogen and cryogenic dry pulverized for PD analysis.
PK parameters were determined by non-compartmental analysis. Intravenous bolus studies in mouse, rat and dog were performed at 1, 1 and 0.1 mg per kg respectively (Extended Data Table 1).

HEC151 = assay: CFA 10-14 day clonogenic assay; type: cell-based; settings: Homo sapiens

CCc1c(N2CCN(C(=O)c3ncnc(C)c3O)CC2)c(=O)n2nc(C3=CCOCC3)nc2n1CC(=O)Nc1ccc(C(F)(F)F)cc1Cl [HRO761]
WRN degradation, dependence on MSI/MSS status [1]: only in MSI cells
Ames (Ames): Negative
GI50 (DLD-1 (HCT15)): ≥ 10000 nM
GI50 (RL952): 16 nM
GI50 (NUGC3): ≥ 10000 nM
GI50 (HCT116; Homo sapiens, HCT-116, 96 h, read-out: 4 day assay GI50, HCT116): 116 nM
GI50 (HCT116; read-out: 4 day assay GI50, HCT116): 143 nM
Papp A→B (MDCK LE permeability; A-B): 30 ×10⁻⁶ cm/s
Papp (MDCK LE permeability; Fig. 1b): 31 ×10⁻⁶ cm/s
Free HRO761 blood concentration ([2]; 20mg/kg po, qd, 0.5 h post treatment, single mouse): 1.505 µM and 0.703 µM and 1.278 µM
Free HRO761 blood concentration ([2]; 20mg/kg po, qd, 1 h, single mouse): 0.984 µM and 0.274 µM and 0.743 µM
Free HRO761 blood concentration ([2]; 20mg/kg po, qd, 2 h, single mouse): 0.245 µM and 0.085 µM and 0.166 µM
Free HRO761 blood concentration ([2]; 20mg/kg po, qd, 4 h, single mouse): 0.104 µM and 0.131 µM
Free HRO761 blood concentration ([2]; 20mg/kg po, qd, 8 h, single mouse): 0.145 µM and 0.122 µM
Free HRO761 blood concentration ([2]; 20mg/kg po, qd, 24 h, single mouse): 0.008 µM and 0.006 µM and 0.002 µM
Free HRO761 blood concentration ([2]; 40mg/kg, 0.5 h, single mouse): 3.970 µM and 2.544 µM
Free HRO761 blood concentration ([2]; 40mg/kg, 1 h, single mouse): 2.426 µM and 1.276 µM
Free HRO761 blood concentration ([2]; 40mg/kg, 2 h, single mouse): 0.355 µM and 0.442 µM and 0.166 µM
Free HRO761 blood concentration ([2]; 40mg/kg, 4 h, single mouse): 0.164 µM and 0.089 µM
Free HRO761 blood concentration ([2]; 40mg/kg, 8 h, single mouse): 0.251 µM and 0.168 µM
Free HRO761 blood concentration ([2]; 40mg/kg, 24 h, single mouse): 0.004 µM and 0.015 µM and 0.019 µM
Free HRO761 blood concentration ([2]; 60mg/kg, 0.5 h, single mouse): 5.178 µM and 5.802 µM and 12.609 µM
Free HRO761 blood concentration ([2]; 60mg/kg, 1 h, single mouse): 2.372 µM and 2.688 µM and 8.368 µM
Free HRO761 blood concentration ([2]; 60mg/kg, 2 h, single mouse): 0.484 µM and 0.423 µM and 1.801 µM
Free HRO761 blood concentration ([2]; 60mg/kg, 4 h, single mouse): 0.455 µM and 0.299 µM and 0.197 µM
Free HRO761 blood concentration ([2]; 60mg/kg, 8 h, single mouse): 0.237 µM and 0.241 µM
Free HRO761 blood concentration ([2]; 60mg/kg, 24 h, single mouse): 0.050 µM and 0.025 µM and 0.021 µM
Free HRO761 blood concentration ([2]; 120mg/kg, 0.5 h, single mouse): 17.511 µM and 15.342 µM
Free HRO761 blood concentration ([2]; 120mg/kg, 1 h, single mouse): 10.912 µM and 17.320 µM
Free HRO761 blood concentration ([2]; 120mg/kg, 2 h, single mouse): 3.175 µM and 5.721 µM
Free HRO761 blood concentration ([2]; 120mg/kg, 4 h, single mouse): 0.693 µM and 0.631 µM
Free HRO761 blood concentration ([2]; 120mg/kg, 8 h, single mouse): 0.515 µM and 0.718 µM
Free HRO761 blood concentration ([2]; 120mg/kg, 24 h, single mouse): 0.210 µM and 0.035 µM and 0.095 µM
concentration at 4 h ([2]; mouse, oral, 20 mg/kg, 20mg/kg po, qd, 4 h, single mouse): 176 nM
concentration at 8 h ([2]; mouse, oral, 20 mg/kg, 20mg/kg po, qd, 8 h, single mouse): 154 nM
concentration at 0.5 h ([2]; mouse, oral, 20 mg/kg, Mean, 20mg/kg po, qd, 0.5 h): 1160 nM
concentration at 1 h ([2]; mouse, oral, 20 mg/kg, Mean, 20mg/kg po, qd, 1 h): 670 nM
concentration at 2 h ([2]; mouse, oral, 20 mg/kg, Mean, 20mg/kg po, qd, 2 h): 170 nM
concentration at 4 h ([2]; mouse, oral, 20 mg/kg, Mean, 20mg/kg po, qd, 4 h): 140 nM
concentration at 8 h ([2]; mouse, oral, 20 mg/kg, Mean, 20mg/kg po, qd, 8 h): 140 nM
concentration at 24 h ([2]; mouse, oral, 20 mg/kg, Mean, 20mg/kg po, qd, 24 h): 5.15 nM
concentration at 0.5 h ([2]; mouse, oral, 40 mg/kg, Mean, 0.5 h): 3140 nM
concentration at 1 h ([2]; mouse, oral, 40 mg/kg, Mean, 1 h): 1860 nM
concentration at 2 h ([2]; mouse, oral, 40 mg/kg, Mean, 2 h): 320 nM
concentration at 4 h ([2]; mouse, oral, 40 mg/kg, Mean, 4 h): 130 nM
concentration at 8 h ([2]; mouse, oral, 40 mg/kg, Mean, 8 h): 200 nM
concentration at 24 h ([2]; mouse, oral, 40 mg/kg, Mean, 24 h): 12.9 nM
concentration at 0.5 h ([2]; mouse, oral, 40 mg/kg, 0.5 h, single mouse): 2910 nM
concentration at 1 h ([2]; mouse, oral, 40 mg/kg, 1 h, single mouse): 1890 nM
concentration at 4 h ([2]; mouse, oral, 40 mg/kg, 4 h, single mouse): 124 nM
concentration at 8 h ([2]; mouse, oral, 40 mg/kg, 8 h, single mouse): 178 nM
concentration at 0.5 h ([2]; mouse, oral, 60 mg/kg, Mean, 0.5 h): 7860 nM
concentration at 1 h ([2]; mouse, oral, 60 mg/kg, Mean, 1 h): 4480 nM
concentration at 2 h ([2]; mouse, oral, 60 mg/kg, Mean, 2 h): 900 nM
concentration at 4 h ([2]; mouse, oral, 60 mg/kg, Mean, 4 h): 320 nM
concentration at 8 h ([2]; mouse, oral, 60 mg/kg, Mean, 8 h): 250 nM
concentration at 24 h ([2]; mouse, oral, 60 mg/kg, Mean, 24 h): 32.2 nM
concentration at 8 h ([2]; mouse, oral, 60 mg/kg, 8 h, single mouse): 276 nM
concentration at 0.5 h ([2]; mouse, oral, 120 mg/kg, Mean, 0.5 h): 15900 nM
concentration at 1 h ([2]; mouse, oral, 120 mg/kg, Mean, 1 h): 13900 nM
concentration at 2 h ([2]; mouse, oral, 120 mg/kg, Mean, 2 h): 4010 nM
concentration at 4 h ([2]; mouse, oral, 120 mg/kg, Mean, 4 h): 610 nM
concentration at 8 h ([2]; mouse, oral, 120 mg/kg, Mean, 8 h): 620 nM
concentration at 24 h ([2]; mouse, oral, 120 mg/kg, Mean, 24 h): 110 nM
concentration at 0.5 h ([2]; mouse, oral, 120 mg/kg, 0.5 h, single mouse): 14800 nM
concentration at 1 h ([2]; mouse, oral, 120 mg/kg, 1 h, single mouse): 13500 nM
concentration at 2 h ([2]; mouse, oral, 120 mg/kg, 2 h, single mouse): 3120 nM
concentration at 4 h ([2]; mouse, oral, 120 mg/kg, 4 h, single mouse): 496 nM
concentration at 8 h ([2]; mouse, oral, 120 mg/kg, 8 h, single mouse): 620 nM
AUC ([2]; mouse, po, 10 mg/kg, read-out: AUCb, u above GI90, u): 0.09 µM·h
AUC ([2]; mouse, po, 20 mg/kg, read-out: AUCb, u above GI90, u): 0.52 µM·h
AUC ([2]; mouse, po, 30 mg/kg, read-out: AUCb, u above GI90, u): 2.14 µM·h
AUC ([2]; mouse, po, 40 mg/kg, read-out: AUCb, u above GI90, u): 4 µM·h
AUC ([2]; mouse, po, 60 mg/kg, read-out: AUCb, u above GI90, u): 6.08 µM·h
AUC ([2]; mouse, po, 120 mg/kg, read-out: AUCb, u above GI90, u): 27 µM·h
AUC ([2]; oral, mouse at 40 mg/kg qd, read-out: Efficacious daily AUC): 31 µM·h
GI50 (HEC151): 303 nM
